Assay results as given in PubChem BioAssay AID248 (DTP/NCI, 2004).
“And” between values parts separate entries of the source, which are not always exact repeats. Equal entries are not always repeated. Inconclusive results and toxic doses are left out. Cut-off read from the data, not from the text of the source: active = T/C of 150% or more; inactive = T/C below 125%.

System: L1210 leukemia ip in BDF1 mice, survival T/C
Test: NCI In Vivo Anticancer Drug Screen. Data for tumor model L1210 Leukemia (intraperitoneal) in B6D2F1 (BDF1) mice
Conditions: endpoint: mean survival time, higher = longer survival
Procedure, shortened: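 Tumor was transplanted into mice, which were then dosed with test compound or vehicle alone. Survival was recorded for each group, and the treated figure was expressed relative to the control figure.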

[1] = dose: 100.0 mg/kg/injection, schedule: Q01DX009 (ip), vehicle: Klucel (hydroxypropylcellulose) (HPC)
[2] = dose: 25.0 mg/kg/injection, schedule: Q01DX009 (ip), vehicle: saline
[3] = dose: 50.0 mg/kg/injection, schedule: Q01DX009 (ip), vehicle: saline
[4] = dose: 75.0 mg/kg/injection, schedule: Q01DX001 (ip), vehicle: other
[5] = dose: 150.0 mg/kg/injection, schedule: Q01DX001 (ip), vehicle: other
[6] = dose: 100.0 mg/kg/injection, schedule: Q04DX003 (ip), vehicle: Klucel (hydroxypropylcellulose) (HPC)
[7] = dose: 200.0 mg/kg/injection, schedule: Q04DX003 (ip), vehicle: Klucel (hydroxypropylcellulose) (HPC)
[8] = dose: 400.0 mg/kg/injection, schedule: Q04DX003 (ip), vehicle: Klucel (hydroxypropylcellulose) (HPC)
[9] = dose: 100.0 mg/kg/injection, schedule: Q04DX002 (ip), vehicle: Klucel (hydroxypropylcellulose) (HPC)
[10] = dose: 200.0 mg/kg/injection, schedule: Q04DX002 (ip), vehicle: Klucel (hydroxypropylcellulose) (HPC)
[11] = dose: 400.0 mg/kg/injection, schedule: Q04DX002 (ip), vehicle: Klucel (hydroxypropylcellulose) (HPC)
[12] = dose: 100.0 mg/kg/injection, schedule: Q04DX003 (ip), vehicle: saline with Tween-80
[13] = dose: 200.0 mg/kg/injection, schedule: Q04DX003 (ip), vehicle: saline with Tween-80

Measured: T/C

Clc1cc(C(Cl)(Cl)Cl)ccc1C(Cl)(Cl)Cl
inactive: dose: 25.0 mg/kg/injection, schedule: Q01DX009 (ip), vehicle: Klucel (hydroxypropylcellulose) (HPC) 89 % of control | dose: 50.0 mg/kg/injection, schedule: Q01DX009 (ip), vehicle: Klucel (hydroxypropylcellulose) (HPC) 92 % of control | [1] 90 % of control

CN1CCC=C(C(=O)N2c3ccccc3Sc3ccccc32)C1
inactive: [2] 88 % of control | dose: 25.0 mg/kg/injection, schedule: Q04DX003 (ip), vehicle: saline 97 % of control | [3] 96 % of control | dose: 50.0 mg/kg/injection, schedule: Q04DX003 (ip), vehicle: saline 96 % of control | dose: 100.0 mg/kg/injection, schedule: Q01DX009 (ip), vehicle: saline 102 % of control | dose: 100.0 mg/kg/injection, schedule: Q04DX003 (ip), vehicle: saline 96 % of control and 105 % of control

O=[N+]([O-])c1ccc(-n2nccn2)cc1
inactive: [4] 100 % of control | [5] 107 % of control

CCC(CC)(COC(N)=O)COC(N)=O
inactive: dose: 25.0 mg/kg/injection, schedule: Q04DX003 (ip), vehicle: Klucel (hydroxypropylcellulose) (HPC) 98 % of control | dose: 50.0 mg/kg/injection, schedule: Q04DX003 (ip), vehicle: Klucel (hydroxypropylcellulose) (HPC) 93 % of control | [6] 98 % of control | [7] 95 % of control | [8] 93 % of control

COc1cc(O)c2c(c1)Cc1cc(C)cc(O)c1C2=O
inactive: dose: 12.5 mg/kg/injection, schedule: Q04DX002 (ip), vehicle: Klucel (hydroxypropylcellulose) (HPC) 93 % of control | dose: 25.0 mg/kg/injection, schedule: Q04DX002 (ip), vehicle: Klucel (hydroxypropylcellulose) (HPC) 93 % of control

[CH3][Sn]1([CH3])[c]2ccccc2Oc2cccc[c]21
inactive: dose: 100.0 mg/kg/injection, schedule: Q01DX001 (ip), vehicle: other 92 % of control | dose: 200.0 mg/kg/injection, schedule: Q01DX001 (ip), vehicle: other 97 % of control | dose: 400.0 mg/kg/injection, schedule: Q01DX001 (ip), vehicle: other 87 % of control

CC(C)(C)C1=CC(=O)C(N=[N+]=[N-])=CC1=O
inactive: dose: 100.0 mg/kg/injection, schedule: Q04DX002 (ip), vehicle: saline 94 % of control | dose: 200.0 mg/kg/injection, schedule: Q04DX002 (ip), vehicle: saline 115 % of control

CCCOc1ccc([N+](=O)[O-])cc1N
inactive: dose: 100.0 mg/kg/injection, schedule: Q01DX001 (ip), vehicle: carboxymethylcellulose (CMC) 96 % of control | dose: 200.0 mg/kg/injection, schedule: Q01DX001 (ip), vehicle: carboxymethylcellulose (CMC) 100 % of control | dose: 400.0 mg/kg/injection, schedule: Q01DX001 (ip), vehicle: carboxymethylcellulose (CMC) 94 % of control

COC(/C=N/O)c1ccccc1 (stereo not drawn)
inactive: dose: 50.0 mg/kg/injection, schedule: Q01DX009 (ip), vehicle: other 88 % of control | dose: 100.0 mg/kg/injection, schedule: Q01DX009 (ip), vehicle: other 88 % of control | dose: 200.0 mg/kg/injection, schedule: Q01DX009 (ip), vehicle: other 101 % of control

Nc1ccc(C(=O)CCCN2CCCCC2)cc1
inactive: dose: 12.5 mg/kg/injection, schedule: Q01DX009 (ip), vehicle: saline 103 % of control | [2] 97 % of control | [3] 100 % of control

COc1cc(Cc2nccc3cc(OC)c(OC)cc23)c(C(C)=O)c(OC)c1
inactive: dose: 5.0 mg/kg/injection, schedule: Q01DX009 (ip), vehicle: saline 113 % of control | dose: 10.0 mg/kg/injection, schedule: Q01DX009 (ip), vehicle: saline 118 % of control | dose: 20.0 mg/kg/injection, schedule: Q01DX009 (ip), vehicle: saline 109 % of control | dose: 40.0 mg/kg/injection, schedule: Q01DX009 (ip), vehicle: saline 99 % of control | dose: 80.0 mg/kg/injection, schedule: Q01DX009 (ip), vehicle: saline 95 % of control

NC(=O)N/N=C1/C=C2CCCCC2CC1 (stereo not drawn)
inactive: [4] 101 % of control | [5] 95 % of control | dose: 300.0 mg/kg/injection, schedule: Q01DX001 (ip), vehicle: other 100 % of control

CCN(CC)CCOc1ccc(C(=O)/C(=C/c2ccc3c(c2)OCO3)c2ccccc2)cc1
inactive: dose: 100.0 mg/kg/injection, schedule: Q04DX003 (sc), vehicle: olive oil, sesame oil, peanut oil 103 % of control | dose: 200.0 mg/kg/injection, schedule: Q04DX003 (sc), vehicle: olive oil, sesame oil, peanut oil 97 % of control | dose: 400.0 mg/kg/injection, schedule: Q04DX003 (sc), vehicle: olive oil, sesame oil, peanut oil 100 % of control

CC(=O)NCCCOc1ccc([N+](=O)[O-])cc1Cl
inactive: dose: 100.0 mg/kg/injection, schedule: Q01DX001 (ip), vehicle: Klucel (hydroxypropylcellulose) (HPC) 100 % of control | [1] 102 % of control | [6] 101 % of control | dose: 200.0 mg/kg/injection, schedule: Q01DX001 (ip), vehicle: Klucel (hydroxypropylcellulose) (HPC) 101 % of control | dose: 200.0 mg/kg/injection, schedule: Q01DX009 (ip), vehicle: Klucel (hydroxypropylcellulose) (HPC) 110 % of control and 112 % of control | [7] 113 % of control | [8] 103 % of control

COC1CCC(/C=C(\C#N)C2CCC(OC)CC2)CC1 (stereo not drawn)
inactive: [9] 96 % of control | [10] 92 % of control | [11] 96 % of control

COc1cc(Br)c(C(C)CC(=O)O)cc1OC (stereo not drawn)
inactive: [12] 103 % of control | [13] 98 % of control | dose: 400.0 mg/kg/injection, schedule: Q04DX003 (ip), vehicle: saline with Tween-80 92 % of control

Cc1ccnc(NC(=O)Nc2ccc(C)cc2[N+](=O)[O-])c1
inactive: [9] 99 % of control | [10] 105 % of control | [11] 115 % of control

Cc1nc(N(C)C)[nH]c(=O)c1CCCNc1ccccc1
inactive: dose: 100.0 mg/kg/injection, schedule: Q01DX001 (ip), vehicle: saline with Tween-80 111 % of control | dose: 200.0 mg/kg/injection, schedule: Q01DX001 (ip), vehicle: saline with Tween-80 96 % of control | dose: 400.0 mg/kg/injection, schedule: Q01DX001 (ip), vehicle: saline with Tween-80 100 % of control

Cc1ncnc2c1CCC2
inactive: dose: 50.0 mg/kg/injection, schedule: Q01DX009 (ip), vehicle: saline with Tween-80 96 % of control | dose: 100.0 mg/kg/injection, schedule: Q01DX009 (ip), vehicle: saline with Tween-80 105 % of control | [12] 97 % of control | [13] 97 % of control

CC(C)CNCc1cc([N+](=O)[O-])ccc1O
inactive: dose: 75.0 mg/kg/injection, schedule: Q01DX001 (ip), vehicle: saline 100 % of control | dose: 150.0 mg/kg/injection, schedule: Q01DX001 (ip), vehicle: saline 97 % of control | dose: 300.0 mg/kg/injection, schedule: Q01DX001 (ip), vehicle: saline 94 % of control

CN(Cc1c(S)ccc2ccccc12)Cc1c(S)ccc2ccccc12
inactive: dose: 100.0 mg/kg/injection, schedule: Q01DX001 (ip), vehicle: saline 94 % of control | dose: 200.0 mg/kg/injection, schedule: Q01DX001 (ip), vehicle: saline 98 % of control | dose: 400.0 mg/kg/injection, schedule: Q01DX001 (ip), vehicle: saline 96 % of control

[O-][n+]1onc(-c2ccccc2)c1-c1ccccc1
inactive: [6] 105 % of control | [7] 108 % of control | [8] 108 % of control

CCOC(=O)CNc1cccc(I)c1
inactive: [9] 110 % of control | [10] 100 % of control | [11] 104 % of control
